In ChEMBL document CHEMBL4680303, “Amine skeleton-based c-di-GMP derivatives as biofilm formation inhibitors” (Bioorg Med Chem Lett, 2021):
Activity calls are given as the source filed them. The rule behind the calls is not given here.

Columns and labels:
Escherichia coli [1] = experiment: Antibacterial activity against Escherichia coli DH5alpha assessed as bacterial cell density at 500 uM relative to control; assay type: functional, DH5[alpha]
Pseudomonas aeruginosa [2] = experiment: Antibacterial activity against Pseudomonas aeruginosa NBRC13275 assessed as bacterial cell density at 500 uM relative to control; assay type: functional
Staphylococcus aureus [3] = experiment: Antibacterial activity against Staphylococcus aureus NBRC13276 assessed as bacterial cell density at 500 uM relative to control; assay type: functional
Streptococcus mutans [4] = experiment: Antibacterial activity against Streptococcus mutans NBRC13955 assessed as bacterial cell density at 500 uM relative to control; assay type: functional
Escherichia coli [5] = experiment: Antibiofilm activity against Escherichia coli DH5alpha assessed as inhibition of biofilm formation at 500 uM incubated for 24 hrs by crystal violet staining based microtiter plate reader assay relative to control; values are per cent of control; conditions: DH5[alpha]
Streptococcus mutans [6] = experiment: Antibiofilm activity against Streptococcus mutans NBRC13955 assessed as inhibition of biofilm formation at 500 uM incubated for 24 hrs by crystal violet staining based microtiter plate reader assay relative to control; values are per cent of control; conditions: NBRC13955, 24 h
Pseudomonas aeruginosa [7] = experiment: Antibiofilm activity against Pseudomonas aeruginosa NBRC13275 assessed as inhibition of biofilm formation at 500 uM incubated for 6 hrs by crystal violet staining based microtiter plate reader assay relative to control; values are per cent of control; conditions: NBRC13275, 6 h
Staphylococcus aureus [8] = experiment: Antibiofilm activity against Staphylococcus aureus NBRC13276 assessed as inhibition of biofilm formation at 500 uM incubated for 24 hrs by crystal violet staining based microtiter plate reader assay relative to control; values are per cent of control; conditions: NBRC13276, 24 h
[9] = Growth inhibition of Staphylococcus aureus NBRC13276 at 1000 uM
Pseudomonas aeruginosa [10] = experiment: Antimicrobial activity against Pseudomonas aeruginosa assessed as inhibition of flagella synthesis relative to control; assay type: functional, organism-based

| SMILES | Activity (Escherichia coli [1]) [%] | Activity (Pseudomonas aeruginosa [2]) [%] | Activity (Staphylococcus aureus [3]) [%] | Activity (Streptococcus mutans [4]) [%] | biofilm formation (% of control) at 500 µM (Escherichia coli [5]) [%] | biofilm formation (% of control) at 500 µM (Streptococcus mutans [6]) [%] | biofilm formation (% of control) at 500 µM (Pseudomonas aeruginosa [7]) [%] | biofilm formation (% of control) at 500 µM (Staphylococcus aureus [8]) [%] | growth inhibition (GI) [9] | Activity (Pseudomonas aeruginosa [10]) |
| --- | --- | --- | --- | --- | --- | --- | --- | --- | --- | --- |
| Nc1nc2c(ncn2CC(=O)NCCNCCNC(=O)Cn2cnc3c(=O)[nH]c(N)nc32)c(=O)[nH]1 | 95 | 112 | 102 | 109 | 99 | 98 | 87 | 42 |  |  |
| Nc1nc2c(ncn2CC(=O)NCCN(CCNC(=O)Cn2cnc3c(=O)[nH]c(N)nc32)CC(=O)O)c(=O)[nH]1 | 95 | 126 | 99 | 188 | 138 | 78 | 82 | 87 |  |  |
| Nc1nc2c(ncn2CC(=O)N2CCN(C(=O)OCc3ccccc3)CCN(C(=O)Cn3cnc4c(=O)[nH]c(N)nc43)CCN(C(=O)OCc3ccccc3)CC2)c(=O)[nH]1 | 91 | 105 | 111 | 143 | 138 | 17 | 86 | 80 |  |  |
| CC(C)C(=O)N1CCN(C(=O)Cn2cnc3c(=O)[nH]c(N)nc32)CCN(C(=O)C(C)C)CCN(C(=O)Cn2cnc3c(=O)[nH]c(N)nc32)CC1 | 559 | 313 | 267 | 206 | 118 | 88 | 114 | 87 |  |  |
| CC(=O)N1CCN(C(=O)Cn2cnc3c(=O)[nH]c(N)nc32)CCN(C(C)=O)CCN(C(=O)Cn2cnc3c(=O)[nH]c(N)nc32)CC1 | 52 | 90 | 150 | 136 | 36 | 40 | 60 | 20 | Non-Toxic | inactive |
| CCC(=O)N(CCNC(=O)Cn1cnc2c(=O)[nH]c(N)nc21)CCNC(=O)Cn1cnc2c(=O)[nH]c(N)nc21 | 95 | 98 | 92 | 106 | 97 | 125 | 94 | 85 |  |  |
| CC(=O)N(CCNC(=O)Cn1cnc2c(=O)[nH]c(N)nc21)CCNC(=O)Cn1cnc2c(=O)[nH]c(N)nc21 | 101 | 119 | 108 | 154 | 116 | 87 | 104 | 76 |  |  |
| Nc1nc2c(ncn2CC(=O)N2CCNCCN(C(=O)Cn3cnc4c(=O)[nH]c(N)nc43)CCNCC2)c(=O)[nH]1 | 93 | 100 | 108 | 138 | 133 | 96 | 85 | 89 |  |  |
| NCCN(CCNC(=O)Cn1cnc2c(=O)[nH]c(N)nc21)C(=O)Cn1cnc2c(=O)[nH]c(N)nc21 | 95 | 116 | 124 | 98 | 104 | 87 | 103 | 87 |  |  |
| Nc1nc2c(ncn2CC(=O)N2CCNCCN(C(=O)Cn3cnc4c(=O)[nH]c(N)nc43)CC2)c(=O)[nH]1 | 95 | 105 | 103 | 121 | 103 | 92 | 105 | 92 |  |  |
| Nc1nc2c(ncn2[C@@H]2O[C@@H]3COP(=O)(O)O[C@H]4[C@@H](O)[C@H](n5cnc6c(=O)[nH]c(N)nc65)O[C@@H]4COP(=O)(O)O[C@H]3[C@H]2O)c(=O)[nH]1 | 76 | 78 | 106 | 98 | 81 | 18 | 48 | 123 |  |  |
| CC(C)C(=O)N(CCNC(=O)Cn1cnc2c(=O)[nH]c(N)nc21)CCNC(=O)Cn1cnc2c(=O)[nH]c(N)nc21 | 97 | 98 | 92 | 104 | 107 | 147 | 83 | 103 |  |  |
| Nc1nc2c(ncn2CC(=O)N2CCN(CC(=O)O)CCN(C(=O)Cn3cnc4c(=O)[nH]c(N)nc43)CCN(CC(=O)O)CC2)c(=O)[nH]1 | 85 | 90 | 117 | 105 | 83 | 90 | 82 | 74 |  |  |
| CCC(=O)N1CCN(C(=O)Cn2cnc3c(=O)[nH]c(N)nc32)CCN(C(=O)CC)CCN(C(=O)Cn2cnc3c(=O)[nH]c(N)nc32)CC1 | 105 | 118 | 124 | 117 | 153 | 46 | 76 | 76 |  |  |
| CC(=O)NCCNCCNC(=O)Cn1cnc2c(=O)[nH]c(N)nc21 | 85 | 119 | 100 | 92 | 108 | 101 | 99 | 135 |  |  |
